According to PubChem BioAssay (NCI):
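Following 48 hours of exposure in 96-well plates, responses at five concentrations were used to interpolate endpoints linearly. TGI denotes the concentration required for complete inhibition of growth.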

Tests used:
Test in all cases: NCI tumour cell line growth inhibition, 48 h
[1] = test system: SF-268 CNS
[2] = test system: PC-3 prostate
[3] = test system: TK-10 renal
[4] = test system: SN12C renal
[5] = test system: OVCAR-8 ovarian
[6] = test system: UACC-62 melanoma
[7] = test system: HCC-2998 colon
[8] = test system: MCF7 breast
[9] = test system: NCI/ADR-RES ovarian
[10] = test system: HCT-15 colon
[11] = test system: HS 578T breast
[12] = test system: SF-295 CNS
[13] = test system: DU-145 prostate
[14] = test system: K-562 leukemia
[15] = test system: HT29 colon
[16] = test system: SK-MEL-28 melanoma
[17] = test system: A498 renal
[18] = test system: HCT-116 colon
[19] = test system: MDA-N
[20] = test system: OVCAR-4 ovarian
[21] = test system: OVCAR-3 ovarian
[22] = test system: OVCAR-5 ovarian
[23] = test system: SNB-19 CNS
[24] = test system: CAKI-1 renal
[25] = test system: MDA-MB-435
[26] = test system: CCRF-CEM leukemia
[27] = test system: HOP-92 NSCLC
[28] = test system: MDA-MB-231 breast
[29] = test system: BT-549 breast
[30] = test system: SK-MEL-5 melanoma
[31] = test system: SF-539 CNS
[32] = test system: COLO 205 colon
[33] = test system: UO-31 renal
[34] = test system: SW-620 colon
[35] = test system: 786-0 renal
[36] = test system: NCI-H23 lung
[37] = test system: A549 NSCLC
[38] = test system: HOP-62 NSCLC
[39] = test system: T-47D breast
[40] = test system: EKVX NSCLC
[41] = test system: U251 CNS
[42] = test system: IGROV1 ovarian
[43] = test system: M14 melanoma
[44] = test system: NCI-H460 lung
[45] = test system: LOX IMVI melanoma
[46] = test system: SR leukemia
[47] = test system: NCI-H522 lung
[48] = test system: MOLT-4 leukemia
[49] = test system: UACC-257 melanoma
[50] = test system: RXF 393 renal
[51] = test system: ACHN renal
[52] = test system: SK-MEL-2 melanoma
[53] = test system: KM12 colon
[54] = test system: HL-60(TB) leukemia
[55] = test system: MALME-3M melanoma
[56] = test system: RPMI-8226 leukemia
[57] = test system: SK-OV-3 ovarian
[58] = test system: NCI-H226 lung
[59] = test system: SNB-75 CNS

CC(C)(C)OC(=O)NC12C3C4C1C1C2C3C41NC(=O)OC(C)(C)C (centres undefined)
TGI [1]: > 100 µM
TGI [2]: > 100 µM
TGI [3]: > 100 µM
TGI [4]: > 100 µM
TGI [5]: > 100 µM
TGI [6]: > 100 µM
TGI [7]: > 100 µM
TGI [8]: 95.9 µM
TGI [9]: > 100 µM
TGI [10]: > 100 µM
TGI [11]: > 100 µM
TGI [12]: > 100 µM
TGI [13]: > 100 µM
TGI [14]: > 100 µM
TGI [15]: > 100 µM
TGI [16]: > 100 µM
TGI [17]: > 100 µM
TGI [18]: > 100 µM
TGI [19]: > 100 µM
TGI [20]: > 100 µM
TGI [21]: > 100 µM
TGI [22]: > 100 µM
TGI [23]: > 100 µM
TGI [24]: > 100 µM
TGI [25]: > 100 µM
TGI [26]: 61.7 µM
TGI [27]: > 100 µM
TGI [28]: 92.1 µM
TGI [29]: > 100 µM
TGI [30]: > 100 µM
TGI [31]: 93.9 µM
TGI [32]: > 100 µM
TGI [33]: > 100 µM
TGI [34]: > 100 µM
TGI [35]: > 100 µM
TGI [36]: > 100 µM
TGI [37]: > 100 µM
TGI [38]: > 100 µM
TGI [39]: > 100 µM
TGI [40]: > 100 µM
TGI [41]: > 100 µM
TGI [42]: > 100 µM
TGI [43]: > 100 µM
TGI [44]: > 100 µM
TGI [45]: > 100 µM
TGI [46]: > 100 µM
TGI [47]: > 100 µM
TGI [48]: 40.4 µM
TGI [49]: > 100 µM
TGI [50]: 84.4 µM
TGI [51]: > 100 µM
TGI [52]: > 100 µM
TGI [53]: 39.3 µM
TGI [54]: 53.9 µM

CN(C)Cc1ccc(-c2cc3onc(-c4ccccc4)c3c(=O)n2C)cc1
TGI [1]: > 100 µM
TGI [2]: > 100 µM
TGI [3]: 53.1 µM
TGI [4]: > 100 µM
TGI [5]: > 100 µM
TGI [6]: 75 µM
TGI [8]: > 100 µM
TGI [9]: > 100 µM
TGI [10]: 50.2 µM
TGI [11]: 46.2 µM
TGI [12]: 46.5 µM
TGI [13]: 85.3 µM
TGI [14]: 74.2 µM
TGI [15]: 29.8 µM
TGI [16]: 41.2 µM
TGI [17]: 56.9 µM
TGI [18]: 30.3 µM
TGI [19]: 44.5 µM
TGI [20]: > 100 µM
TGI [21]: > 100 µM
TGI [22]: > 100 µM
TGI [23]: > 100 µM
TGI [24]: > 100 µM
TGI [25]: 59.8 µM
TGI [55]: 72.5 µM
TGI [27]: 87.6 µM
TGI [28]: > 100 µM
TGI [29]: > 100 µM
TGI [30]: 47.1 µM
TGI [31]: 46.8 µM
TGI [32]: 41.1 µM
TGI [33]: 26.6 µM
TGI [34]: 65.1 µM
TGI [35]: 35 µM
TGI [36]: > 100 µM
TGI [37]: 36.9 µM
TGI [38]: 41.3 µM
TGI [56]: 54.9 µM
TGI [39]: 58.4 µM
TGI [40]: > 100 µM
TGI [41]: 64.8 µM
TGI [42]: > 100 µM
TGI [43]: 30.7 µM
TGI [44]: 32.3 µM
TGI [45]: 49.8 µM
TGI [46]: 34 µM
TGI [47]: 39.5 µM
TGI [48]: 49.2 µM
TGI [49]: 35.6 µM
TGI [51]: > 100 µM
TGI [52]: 78.8 µM
TGI [53]: 43.8 µM
TGI [57]: > 100 µM
TGI [54]: 4.56 µM
TGI [58]: > 100 µM

O[C@@H]1C=C[C@]23CCN(Cc4cc5c(cc42)OCO5)[C@@H]3C1
TGI [1]: > 100 µM
TGI [2]: > 100 µM
TGI [3]: > 100 µM
TGI [4]: > 100 µM
TGI [5]: > 100 µM
TGI [6]: > 100 µM
TGI [8]: > 100 µM
TGI [9]: > 100 µM
TGI [59]: > 100 µM
TGI [10]: > 100 µM
TGI [11]: > 100 µM
TGI [12]: > 100 µM
TGI [13]: > 100 µM
TGI [14]: > 100 µM
TGI [15]: > 100 µM
TGI [16]: > 100 µM
TGI [17]: > 100 µM
TGI [18]: > 100 µM
TGI [19]: > 100 µM
TGI [20]: > 100 µM
TGI [21]: > 100 µM
TGI [22]: > 100 µM
TGI [23]: > 100 µM
TGI [24]: > 100 µM
TGI [25]: > 100 µM
TGI [26]: > 100 µM
TGI [55]: > 100 µM
TGI [27]: > 100 µM
TGI [28]: > 100 µM
TGI [29]: > 100 µM
TGI [30]: > 100 µM
TGI [31]: > 100 µM
TGI [32]: > 100 µM
TGI [33]: > 100 µM
TGI [34]: > 100 µM
TGI [35]: > 100 µM
TGI [36]: > 100 µM
TGI [37]: > 100 µM
TGI [38]: > 100 µM
TGI [56]: > 100 µM
TGI [39]: > 100 µM
TGI [40]: > 100 µM
TGI [41]: > 100 µM
TGI [42]: > 100 µM
TGI [43]: > 100 µM
TGI [44]: > 100 µM
TGI [45]: > 100 µM
TGI [46]: > 100 µM
TGI [47]: > 100 µM
TGI [48]: > 100 µM
TGI [49]: > 100 µM
TGI [50]: > 100 µM
TGI [51]: > 100 µM
TGI [52]: > 100 µM
TGI [53]: > 100 µM
TGI [57]: > 100 µM
TGI [54]: > 100 µM
TGI [58]: > 100 µM

OC1(c2ccccc2)C2CC=CC2C1(c1ccccc1)c1ccccc1 (centres undefined)
TGI [1]: > 100 µM
TGI [2]: > 100 µM
TGI [3]: > 100 µM
TGI [4]: > 100 µM
TGI [5]: > 100 µM
TGI [6]: > 100 µM
TGI [7]: 48.3 µM
TGI [8]: 79.4 µM
TGI [9]: > 100 µM
TGI [59]: > 100 µM
TGI [10]: > 100 µM
TGI [11]: > 100 µM
TGI [12]: > 100 µM
TGI [13]: > 100 µM
TGI [14]: > 100 µM
TGI [15]: 69.8 µM
TGI [16]: > 100 µM
TGI [17]: 57 µM
TGI [18]: > 100 µM
TGI [19]: > 100 µM
TGI [21]: > 100 µM
TGI [22]: > 100 µM
TGI [23]: > 100 µM
TGI [24]: 60.1 µM
TGI [25]: 62.1 µM
TGI [26]: > 100 µM
TGI [55]: 53 µM
TGI [27]: > 100 µM
TGI [28]: > 100 µM
TGI [29]: > 100 µM
TGI [30]: 36.2 µM
TGI [31]: > 100 µM
TGI [32]: 44.6 µM
TGI [33]: > 100 µM
TGI [34]: > 100 µM
TGI [35]: > 100 µM
TGI [36]: > 100 µM
TGI [37]: > 100 µM
TGI [38]: > 100 µM
TGI [56]: 86.5 µM
TGI [39]: > 100 µM
TGI [40]: 76.4 µM
TGI [41]: > 100 µM
TGI [42]: 48.9 µM
TGI [43]: > 100 µM
TGI [44]: > 100 µM
TGI [45]: 37.9 µM
TGI [46]: > 100 µM
TGI [47]: 32.7 µM
TGI [48]: > 100 µM
TGI [49]: 81.4 µM
TGI [50]: 46.3 µM
TGI [51]: > 100 µM
TGI [52]: 27.5 µM
TGI [53]: > 100 µM
TGI [57]: > 100 µM
TGI [54]: 95.7 µM
